This is an account of results in patent publication US6472384B1, “Antimicrobial compounds” (Sankyo Company, Limited, priority 1998, dated 2002).

Data set [1] concerns Mycobacterium smegmatis Strain SANK 75075. Nature of the data set: Minimum inhibitory concentration against Mycobacterium smegmatis (agar plate dilution). It is filed as cell-based. The settings on record: Mycolicibacterium smegmatis; Mycobacterium smegmatis SANK 75075; nutrient agar containing 5% glycerol; 37° C. for 18 hours. As to the method:
The minimum inhibitory concentration of preferred compounds of the invention against Mycobacterium smegmatis Strain SANK 75075 was determined in accordance with the process described below. The concentration of the compound to be tested was set at four stages by four-fold dilution starting from 1000 μg/ml (1000 μg/ml, 250 μg/ml, 62 μg/ml and 15 μg/ml). A 1 ml portion of the diluted sample of each stage was poured into a Petri dish (“Terumo Petri dish”, 90×20 mm). A nutrient agar medium (9 ml, product of Eiken Chemical) containing 5% glycerol was added and they were mixed to prepare a plate medium. A test microorganism Mycobacterium smegmatis SANK 75075 was precultured overnight at 37° C. on a trypto-soy broth (T.S.B) medium (product of Eiken Chemical) containing 5% glycerol. On the testing day, the microorganism solution was diluted 100-fold with T.S.B. and one loopful of the diluted culture was streaked onto the plate medium. After cultivation at 37° C. for 18 hours, the minimum concentration (MIC) of the test substance inhibiting the growth of the microorganism was determined.

A short description of data set [2]: Solubility (physico-chemical properties). It is filed as physicochemical.
Data set [3] concerns Mycobacterium avium Strain NIHJ1605. Nature of the data set: Minimum inhibitory concentration against Mycobacterium avium (broth dilution). It is filed as cell-based. To be noted: NIHJ1605, 144 h; Mycobacterium avium NIHJ 1605; Middleblook 7H9 broth; aerobic culture at 37° C. for 6 days. For orientation: Dilution methods test growth across graded concentrations, often in twofold steps.

Data set [4] deals with Mycobacterium smegmatis SANK 75075. Nature of the data set: Disk assay against Mycobacterium smegmatis. To be noted: Mycolicibacterium smegmatis, SANK75075, 40 μg of test substance per paper disk of 8 mm, read-out: inhibitory zone (circle) diameter. It is filed as cell-based. The source says:
Compound A-500359E, Compound A-500359F, the amide derivative of Compound A-500359F, Compound A-500359H, Compound A-500359J and Compound A-500359M-3 of the present invention thus available are novel compounds which have not been described in the literature. Their growth inhibitory activity against general gram positive bacteria or gram negative bacteria can be determined by the disk assay method using normal agar medium (product of Eiken Chemical) or heart infusion agar medium (product of Difco Laboratories). Growth inhibitory activity against Mycobacteria, gram positive bacteria belonging to the Actinonycetales, can be determined similarly on the above-described medium added further with glycerin.
So-called disk assay was conducted using 40 μg of a test substance per paper disk of 8 mm.
So-called Disk assay (“Experimental Agricultural Chemistry”. ed. by Agricultural Chemistry Class/Agriculture Dept./Tokyo Univ., 3rd edition, Volume II, published by Asakura Shoten in 1978) was conducted using 40 μg of a test substance per paper disk of 8 mm.

≈ marks a conversion by molar mass, not a printed value.

As a reminder, the MIC is the lowest concentration that inhibits growth of the organism. A higher MIC goes with a less susceptible organism. `CCCCCCC(=O)O[C@@H]1[C@@H](O[C@@H](C(N)=O)[C@H]2O[C@@H](n3ccc(=O)[nH]c3=O)[C@H](O)[C@@H]2OC)OC(C(=O)N[C@H]2CCCCNC2=O)=C[C@@H]1OC(=O)CCCCCC` [Exemp. Compound No. 280]: 3.1 µg/mL (≈ 3.9 µM) was the least that counted as inhibitory in data set [1] (MIC).
`NC(=O)C(OC1OC(C(=O)O)=CC(O)C1O)C1OC(n2ccc(=O)[nH]c2=O)C(O)C1O` (stereo not drawn) [A-500359H]: in data set [2], the Solubility in chloroform result is reported as “insoluble”, the Solubility in methanol entry is on record as “slightly soluble”, the “Solubility in normal hexane” value is “insoluble” and the Solubility in water result was “soluble”.
Take `CO[C@H]1[C@@H](O)[C@H](n2ccc(=O)[nH]c2=O)O[C@@H]1[C@@H](O[C@H]1OC(C(=O)N[C@H]2CCCCNC2=O)=C[C@H](O)[C@@H]1O)C(N)=O` [Capuramycin, capuramycin, reference compound]: the minimum inhibitory concentration (MIC) worked out at 12.5 µg/mL (≈ 21.9 µM) in data set [1] and 8 µg/mL (≈ 14 µM) in data set [3].
Take `COC1C(O)C(n2ccc(=O)[nH]c2=O)OC1C(OC1OC(C(N)=O)=CC(O)C1O)C(N)=O` (stereo not drawn) [amide derivative of compound A-500359F]: in data set [4], the zone of inhibition at 40 µg/disc was 12 mm. In addition, in data set [2], the Solubility in chloroform result was “insoluble”, the Solubility in methanol result is given as “slightly soluble”, the “Solubility in normal hexane” value is listed as “insoluble” and the Solubility in water result is given as “soluble”.
For the compound `COC(=O)C1=CC(O)C(O)C(OC(C(N)=O)C2OC(n3ccc(=O)[nH]c3=O)C(O)C2OC)O1` (stereo not drawn) [A-500359E], the zone of inhibition at 40 µg/disc in data set [4] was found to be 12 mm. Also, in data set [2], the Solubility in chloroform result is “insoluble”, the Solubility in methanol result was “slightly soluble”, the “Solubility in normal hexane” value is recorded as “insoluble” and the Solubility in water result was “soluble”.
For the compound `CCCCCCCCC(=O)O[C@@H]1[C@H](OC)[C@@H]([C@@H](O[C@H]2OC(C(=O)N[C@H]3CCC[C@@H](C)NC3=O)=C[C@H](O)[C@@H]2O)C(N)=O)O[C@H]1n1ccc(=O)[nH]c1=O` [Exemp. Compound No. 6], the MIC in data set [1] came to 3.1 µg/mL (≈ 4.28 µM).
In turn, `CCCCCCCCCCCCCCCC(=O)O[C@@H]1[C@H](OC)[C@@H]([C@@H](O[C@H]2OC(C(=O)N[C@H]3CCCCNC3=O)=C[C@H](O)[C@@H]2O)C(N)=O)O[C@H]1n1ccc(=O)[nH]c1=O` [Exemp. Compound No. 53] had an MIC in data set [1] of 6.2 µg/mL (≈ 7.67 µM).
Still for that read-out and setting: the value for `CCCCCCCCCCCCCCCC(=O)O[C@H]1C=C(C(=O)N[C@H]2CCCCNC2=O)O[C@H](O[C@@H](C(N)=O)[C@H]2O[C@@H](n3ccc(=O)[nH]c3=O)[C@H](O)[C@@H]2OC)[C@H]1O` [Exemp. Compound No. 135] was 1.5 µg/mL (≈ 1.86 µM).
`CO[C@H]1[C@@H](OC(=O)CC(c2ccccc2)c2ccccc2)[C@H](n2ccc(=O)[nH]c2=O)O[C@@H]1[C@@H](O[C@H]1OC(C(=O)N[C@H]2CCC[C@@H](C)NC2=O)=C[C@H](O)[C@@H]1O)C(N)=O` [Exemp. Compound No. 21] displayed an MIC in data set [1] of 6.2 µg/mL (≈ 7.83 µM).
Consider `COC1C(O)C(n2ccc(=O)[nH]c2=O)OC1C(OC1OC(C(=O)O)=CC(O)C1O)C(N)=O` (stereo not drawn) [A-500359F], for which, in data set [2], the Solubility in chloroform entry is on record as “insoluble”, the Solubility in methanol result is “slightly soluble”, the “Solubility in normal hexane” value is listed as “insoluble” and the Solubility in water result was “soluble”.
For the compound `CCCCCCCCCC(=O)O[C@@H]1[C@H](OC)[C@@H]([C@@H](O[C@H]2OC(C(=O)N[C@H]3CCC[C@@H](C)NC3=O)=C[C@H](O)[C@@H]2O)C(N)=O)O[C@H]1n1ccc(=O)[nH]c1=O` [Exemp. Compound No. 7], the MIC in data set [1] came to 6.2 µg/mL (≈ 8.4 µM).
Consider `C=CCC(NC(=O)C1=CC(O)C(O)C(OC(C(N)=O)C2OC(n3ccc(=O)[nH]c3=O)C(O)C2OC)O1)C(=O)O` (stereo not drawn) [A-500359M-3], for which the zone of inhibition at 40 µg/disc in data set [4] amounted to 12 mm. For the same compound, in data set [2], the Solubility in chloroform entry is given as “insoluble”, the Solubility in methanol entry is on record as “soluble”, the “Solubility in normal hexane” value was “insoluble” and the Solubility in water result is on record as “soluble”.
In the case of `NC(=O)C(OC1OC(C(=O)O)C(O)C(O)C1O)C1OC(n2ccc(=O)[nH]c2=O)C(O)C1O` (stereo not drawn) [A-500359J], in data set [2], the Solubility in chloroform entry is “insoluble”, the Solubility in methanol entry is on record as “slightly soluble”, the “Solubility in normal hexane” value is on record as “insoluble” and the Solubility in water result is on record as “soluble”.
In turn, `CCCCCCCCCCCCCCCC(=O)O[C@@H]1[C@H](OC)[C@@H]([C@@H](O[C@H]2OC(C(=O)N[C@H]3CCC[C@@H](C)NC3=O)=C[C@H](O)[C@@H]2O)C(N)=O)O[C@H]1n1ccc(=O)[nH]c1=O` [Exemp. Compound No. 11] returned a minimal inhibitory concentration (MIC) in data set [1] of 6.2 µg/mL (≈ 7.54 µM).
